Assay [1] deals with T1, hAM2 receptor (CALCRL:RAMP3) (Homo sapiens, UniProt O60896+Q16602).
T1 construct: expressed in transfected cells; host or cells: GeneBLAzer CALCRL:RAMP3-CRE-bla Freestyle 293F
The assay is described as follows: AM2 receptor antagonist activity measured by cAMP assay (HTRF). The following applies: for Emax: % MPE: percent of the maximal possible effect, read-out: hAM2-R Efficacy Antag (%) Ave; for Emax / IC50: agonist human adrenomedullin; for IC50: GeneBLAzer CALCRL:RAMP3-CRE-bla Freestyle 293F cells, read-out: hAM2-R IC50 Ave; for selectivity ratio CGRP/AM2: selectivity ratio for hCGRP over hAM2, calculated from the IC50 values. The assay is classed as cell-based.
Protocol: Antagonist activity for the adrenomedullin receptor AM2 was determined using the method described in Example 6 above, with the following modifications. Instead of GeneBLAzer® CALCRL:RAMP1-CRE-bla Freestyle™ 293F cells, GeneBLAzer® CALCRL:RAMP3-CRE-bla Freestyle™ 293F cells were used to test activity at hAM2 receptors. The agonist was human adrenomedullin, instead of α-CGRP.
In Table 5, the selectivity ratio for hCGRP over hAM2 is calculated as hCGRP-R IC50/hAM2-R IC50.

The target of assay [2] is T2, hCGRP receptor (CALCRL:RAMP1) (Homo sapiens, UniProt O60894+Q16602).
T2 construct: host or cells: GeneBLAzer CALCRL:RAMP1-CRE-bla Freestyle 293F
T2 sequence (Q16602 23-461): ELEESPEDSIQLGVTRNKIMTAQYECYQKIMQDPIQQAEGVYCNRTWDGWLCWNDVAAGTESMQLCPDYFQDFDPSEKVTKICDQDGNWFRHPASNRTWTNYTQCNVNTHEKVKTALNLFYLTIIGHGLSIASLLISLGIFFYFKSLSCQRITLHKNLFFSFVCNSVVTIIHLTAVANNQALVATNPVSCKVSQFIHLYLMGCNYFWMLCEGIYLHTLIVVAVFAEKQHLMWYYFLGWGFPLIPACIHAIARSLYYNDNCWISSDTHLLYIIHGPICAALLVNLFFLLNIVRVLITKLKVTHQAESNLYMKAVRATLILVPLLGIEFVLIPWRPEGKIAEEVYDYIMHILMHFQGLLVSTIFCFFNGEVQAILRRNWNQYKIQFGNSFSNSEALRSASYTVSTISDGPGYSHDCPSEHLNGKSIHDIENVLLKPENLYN
T2 sequence (O60894 27-148): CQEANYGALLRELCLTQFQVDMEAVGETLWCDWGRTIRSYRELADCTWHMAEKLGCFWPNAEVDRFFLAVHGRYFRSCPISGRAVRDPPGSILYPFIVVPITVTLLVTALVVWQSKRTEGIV
Kind of assay: CGRP receptor antagonist activity measured by cAMP assay (HTRF). The assay is classed as cell-based. The following applies: agonist human α-CGRP; for Emax: % MPE: percent of the maximal possible effect, read-out: hCGRP-R Efficacy Antag (%) Ave; for IC50: GeneBLAzer CALCRL:RAMP1-CRE-bla Freestyle 293F cells, 30 minutes, read-out: hCGRP-R IC50 Ave. On the procedure:
Example 6: CGRP Receptor Antagonist Activity Measured by cAMP Assay
CGRP receptor agonists increase intracellular cyclic adenosine mono-phosphate (cAMP). CGRP receptor antagonists can reduce the agonist effect. Antagonist activity was assessed by measurement of cyclic adenosine mono-phosphate (cAMP) using cell line stably expressing the hCGRP receptor (GeneBLAzer® CALCRL:RAMP1-CRE-bla Freestyle™ 293F, Invitrogen). hCGRP receptor expressing cells were maintained in DMEM high-glucose with GlutaMAX™ containing 10% (v/v) FBS, 0.1 mM NEAA, 25 mM HEPES, 5 ug/ml Blasticidin, 100 ug/ml Hygromycin, and 400 ug/ml Geneticin at 37° C. under 5% CO2 in a humidified atmosphere. For cAMP measurement, cells were washed once with 5 ml 1×PBS, cell maintenance media was replaced with compound buffer ((CB): DMEM containing 0.1% BSA and 0.5 mM IBMX), and flasks were incubated for 1 hour at 37° C. under 5% CO2 in a humidified atmosphere. Cells were removed from culture flasks using non-enzymatic cell dissociation buffer and harvested in CB. The reaction was performed in 384 well white small volume plates (Greiner) at a density of 10,000 cells/well. Cells were exposed to varying concentrations of antagonist compounds for 30 minutes in the presence of a fixed concentration of agonist (human α-CGRP). cAMP levels were measured using an HTRF (homogeneous time resolved fluorescence)-based competitive cAMP immunoassay (cAMP Dynamic 2 Kit, Cisbio), according to the manufacturer's instructions. […] Reported parameters include antagonist potency IC50 (the concentration causing half-maximal inhibition of the agonist response for antagonist compounds) and efficacy (% MPE: percent of the maximal possible effect).

The values below come from US9969775B2, “CGRP antagonist peptides” (Ferring B.V., priority 2015, dated 2018).

Numbered stars: 1 amine (or outer) side, 2 acyl side, 3 side chain; on linkers, the order of the positions; unused ones are H or OH. Bridge positions count the residues as written; N and C are the ends. Square brackets hold non-standard residues; d marks the D form. Peptide text beside a SMILES is read from it. * marks the point of attachment. Phe(3-CH2NH2) = O=C([C@H](Cc1cccc(CN[*:3])c1)N[*:1])[*:2]; Phe(3-CONH2) = NC(=O)c1cccc(C[C@H](N)C(=O)O)c1; Phe(2-CONH2) = NC(=O)c1ccccc1C[C@H](N)C(=O)O; X15 = N#CN=C(N)NCCC[C@H](N[*:1])C(=O)[*:2]; X5 = O=C([C@H](Cc1ccc(CO)cc1)N[*:1])[*:2]; Triazol3yl(1,2,4-5-NH2) = Nc1nc(*)n[nH]1; X14 = CCN(CC)CCC[C@H](N[*:1])C(=O)[*:2]; Arg(Me) = CNC(=N)NCCC[C@H](N)C(=O)O; Orn(iPr) = CC(C)NCCC[C@H](N)C(=O)O; Benzoyl(4-F) = O=C(c1ccc(F)cc1)*; Oxazole2carbonyl = O=C(c1ncco1)*; 3Pal = N[C@@H](Cc1cccnc1)C(=O)O; Picolinoyl = O=C(c1ccccn1)*; ΔPro = O=C(O)[C@@H]1C=CCN1; Orn = NCCC[C@H](N)C(=O)O; X1 = O=C(c1ncccc1F)*

T1 sequence (Q16602 23-461): as the sequence (Q16602 23-461) above
T1 sequence (O60896 24-148): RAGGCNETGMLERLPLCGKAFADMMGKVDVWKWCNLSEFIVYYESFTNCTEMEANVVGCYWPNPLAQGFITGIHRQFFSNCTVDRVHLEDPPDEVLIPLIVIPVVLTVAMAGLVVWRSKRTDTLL

In general, IC50 refers to the midpoint of a concentration-inhibition curve. As to `CC(C)[C@@H]1NC(=O)[C@H](CC(=O)O)NC(=O)[C@H](CCCNC(=N)N)NC(=O)[C@@H](NC(=O)[C@H](Cc2cccc(CN)c2)NC(=O)[C@H](NC(=O)c2ccc(F)cc2)C(C)C)CSSC[C@@H](C(=O)N[C@@H](Cc2cccnc2)C(N)=O)NC(=O)[C@H](Cc2ccc(O)cc2)NC(=O)[C@@H]2C=CCN2C(=O)CNC1=O` [Compound 22, Bz(4-F)-D-Val-Phe(3-CH2NH2)-c(Cys-Arg-Asp-Val-Gly-Dhp-Tyr-Cys)-3Pal-NH2] ({Benzoyl(4-F)}-[dV][Phe(3-CH2NH2)]CRDVG[ΔPro]YC[3Pal]-NH2; disulfide 3-10), in assay [1], the Emax was 101%, the half-maximal inhibitory concentration (IC50) is 33 nM and the “selectivity ratio CGRP/AM2” value is 175. Also, in assay [2], the Emax was 100% and the IC50 was 0.19 nM.
For `CC(C)[C@@H]1NC(=O)[C@H](CC(=O)O)NC(=O)[C@H](CCCNC(=N)N)NC(=O)[C@@H](NC(=O)[C@H](Cc2cccc(CN)c2)NC(=O)[C@H](NC(=O)c2ncco2)C(C)C)CSSC[C@@H](C(=O)N[C@@H](Cc2cccnc2)C(N)=O)NC(=O)[C@H](Cc2cccc(C(N)=O)c2)NC(=O)[C@@H]2C=CCN2C(=O)CNC1=O` [Compound 23, Oxazole-2-carbonyl-D-Val-Phe(3-CH2NH2)-c(Cys-Arg-Asp-Val-Gly-Dhp-Phe(3-Cbm)-Cys)-3Pal-NH2] (Oxazole2carbonyl-[dV][Phe(3-CH2NH2)]CRDVG[ΔPro][Phe(3-CONH2)]C[3Pal]-NH2; disulfide 3-10) the same measures were 100%, 21 nM, 400, 100% and 0.05 nM.
For `CCN(CC)CCC[C@@H]1NC(=O)[C@@H](NC(=O)[C@H](Cc2ccc(O)cc2)NC(=O)[C@H](NC(=O)c2ccccn2)C(C)C)CSSC[C@@H](C(=O)N[C@@H](Cc2cccnc2)C(N)=O)NC(=O)[C@H](Cc2ccccc2)NC(=O)[C@@H]2CCCN2C(=O)CNC(=O)[C@H](C(C)C)NC(=O)[C@H](CC(=O)O)NC1=O` [Compound 24, Picolinoyl-D-Val-Tyr-c(Cys-Orn(Et2)-Asp-Val-Gly-Pro-Phe-Cys)-3Pal-NH2] (Picolinoyl-[dV]YC[X14]DVGPFC[3Pal]-NH2; disulfide 3-10) the same measures were 98%, 128 nM, 1213, 100% and 0.11 nM.
Take `CC(C)[C@@H]1NC(=O)[C@H](CC(=O)O)NC(=O)[C@H](CCCN)NC(=O)[C@@H](NC(=O)[C@H](Cc2ccc(O)cc2)NC(=O)[C@H](NC(=O)c2ccccn2)C(C)C)CSSC[C@@H](C(=O)N[C@@H](Cc2cccnc2)C(N)=O)NC(=O)[C@H](Cc2ccc(CO)cc2)NC(=O)[C@@H]2CCCN2C(=O)CNC1=O` [Compound 25, Picolinoyl-D-Val-Tyr-c(Cys-Orn-Asp-Val-Gly-Pro-Phe(4-CH2OH)-Cys)-3Pal-NH2] (Picolinoyl-[dV]YC[Orn]DVGP[X5]C[3Pal]-NH2; disulfide 3-10): in assay [1], the Emax is 100%, the IC50 is 78 nM and the “selectivity ratio CGRP/AM2” value is 1071. For the same molecule, in assay [2], the Emax is 100% and the IC50 was 0.07 nM.
With `CC(C)[C@@H]1NC(=O)[C@H](CC(=O)O)NC(=O)[C@H](CCCNC(N)=NC#N)NC(=O)[C@@H](NC(=O)[C@H](Cc2ccc(O)cc2)NC(=O)[C@H](NC(=O)c2ccccn2)C(C)C)CSSC[C@@H](C(=O)N[C@@H](Cc2cccnc2)C(N)=O)NC(=O)[C@H](Cc2ccccc2)NC(=O)[C@@H]2CCCN2C(=O)CNC1=O` [Compound 26, Picolinoyl-D-Val-Tyr-c(Cys-Arg(CN)-Asp-Val-Gly-Pro-Phe-Cys)-3Pal-NH2] (Picolinoyl-[dV]YC[X15]DVGPFC[3Pal]-NH2; disulfide 3-10), the Emax in assay [1] and in assay [2] was 100% throughout.
In the case of `CC(C)[C@@H]1NC(=O)[C@H](CC(=O)O)NC(=O)[C@H](CCCNc2nc(N)n[nH]2)NC(=O)[C@@H](NC(=O)[C@H](Cc2ccc(O)cc2)NC(=O)[C@H](NC(=O)c2ccccn2)C(C)C)CSSC[C@@H](C(=O)N[C@@H](Cc2cccnc2)C(N)=O)NC(=O)[C@H](Cc2ccccc2)NC(=O)[C@@H]2CCCN2C(=O)CNC1=O` [Compound 27, Picolinoyl-D-Val-Tyr-c(Cys-Orn(Atz)-Asp-Val-Gly-Pro-Phe-Cys)-3Pal-NH2] (Picolinoyl-[dV]YC[Orn](Triazol3yl(1,2,4-5-NH2))DVGPFC[3Pal]-NH2; disulfide 3-10), in assay [1], the Emax is 98%, the IC50 was 119 nM and the “selectivity ratio CGRP/AM2” value was 765. Besides, in assay [2], the Emax is 100% and the IC50 was 0.15 nM.
Turning to `CNC(=N)NCCC[C@@H]1NC(=O)[C@@H](NC(=O)[C@H](Cc2ccc(O)cc2)NC(=O)[C@H](NC(=O)c2ccccn2)C(C)C)CSSC[C@@H](C(=O)N[C@@H](Cc2cccnc2)C(N)=O)NC(=O)[C@H](Cc2ccccc2)NC(=O)[C@@H]2CCCN2C(=O)CNC(=O)[C@H](C(C)C)NC(=O)[C@H](CC(=O)O)NC1=O` [Compound 28, Picolinoyl-D-Val-Tyr-c(Cys-Arg(Me)-Asp-Val-Gly-Pro-Phe-Cys)-3Pal-NH2] (Picolinoyl-[dV]YC[Arg(Me)]DVGPFC[3Pal]-NH2; disulfide 3-10), the Emax was 99% in assay [1] and 100% in assay [2].
Turning to `CC(C)[C@@H]1NC(=O)[C@H](CC(=O)O)NC(=O)[C@H](CCCN)NC(=O)[C@@H](NC(=O)[C@H](Cc2ccc(O)cc2)NC(=O)[C@H](NC(=O)c2ncccc2F)C(C)C)CSSC[C@@H](C(=O)N[C@@H](Cc2cccnc2)C(N)=O)NC(=O)[C@H](Cc2ccc(CO)cc2)NC(=O)[C@@H]2CCCN2C(=O)CNC1=O` [Compound 29, Picolinoyl(3-F)-D-Val-Tyr-c(Cys-Orn-Asp-Val-Gly-Pro-Phe(4-CH2OH)-Cys)-3Pal-NH2] (X1-[dV]YC[Orn]DVGP[X5]C[3Pal]-NH2; disulfide 3-10), in assay [1], the Emax is 98%, the IC50 was 148 nM and the “selectivity ratio CGRP/AM2” value is recorded as 1699. For the same molecule, in assay [2], the Emax is 100% and the IC50 was 0.09 nM.
For `CC(C)NCCC[C@@H]1NC(=O)[C@@H](NC(=O)[C@H](Cc2ccccc2C(N)=O)NC(=O)[C@H](NC(=O)c2ncco2)C(C)C)CSSC[C@@H](C(=O)N[C@@H](Cc2cccnc2)C(N)=O)NC(=O)[C@H](Cc2ccccc2)NC(=O)[C@@H]2CCCN2C(=O)CNC(=O)[C@H](C(C)C)NC(=O)[C@H](CC(=O)O)NC1=O` [Compound 30, Oxazole-2-carbonyl-D-Val-Phe(2-Cbm)-c(Cys-Orn(iPr)-Asp-Val-Gly-Pro-Phe-Cys)-3Pal-NH2] (Oxazole2carbonyl-[dV][Phe(2-CONH2)]C[Orn(iPr)]DVGPFC[3Pal]-NH2; disulfide 3-10), in assay [1], the Emax was 98%, the IC50 was 700 nM and the “selectivity ratio CGRP/AM2” value is recorded as 6628. Moreover, in assay [2], the Emax was 100% and the IC50 was 0.11 nM.
